The target in this experiment is DNA-PK (Homo sapiens, UniProt P78527). Description: DNA-PK Inhibition Assay (standard radiometric kinase assay, 33P-ATP, peptide substrate). The conditions noted are these: radiometric assay, approximately 6 nM DNA-PK, 100 μM ATP, 45 min; fit to competitive tight-binding inhibition; read-out: Ki for the inhibition of DNA-PK. The experiment is classed as biochemical. How it is done: Compounds were screened for their ability to inhibit DNA-PK kinase using a standard radiometric assay. Briefly, in this kinase assay the transfer of the terminal ^33P-phosphate in ^33P-ATP to a peptide substrate is interrogated. The assay was carried out in 384-well plates to a final volume of 50 μL per well containing approximately 6 nM DNA-PK, 50 mM HEPES (pH 7.5), 10 mM MgCl2, 25 mM NaCl, 0.01% BSA, 1 mM DTT, 10 μg/mL sheared double-stranded DNA (obtained from Sigma), 0.8 mg/mL DNA-PK peptide (Glu-Pro-Pro-Leu-Ser-Gln-Glu-Ala-Phe-Ala-Asp-Leu-Trp-Lys-Lys-Lys, obtained from American Peptide), and 100 μM ATP. Accordingly, compounds of the invention were dissolved in DMSO to make 10 mM initial stock solutions. Serial dilutions in DMSO were then made to obtain the final solutions for the assay. A 0.75 μL aliquot of DMSO or inhibitor in DMSO was added to each well, followed by the addition of ATP substrate solution containing ^33P-ATP (obtained from Perkin Elmer). The reaction was started by the addition of DNA-PK, peptide and ds-DNA. After 45 min, the reaction was quenched with 25 μL of 5% phosphoric acid. The reaction mixture was transferred to MultiScreen HTS 384-well PH plates (obtained from Millipore), allowed to bind for one hour, and washed three times with 1% phosphoric acid. Following the addition of 50 μL of Ultima Gold™ high efficiency scintillant (obtained from Perkin Elmer), the samples were counted in a Packard TopCount NXT Microplate Scintillation and Luminescence Counter (Packard BioScience). The Ki values were calculated using Microsoft Excel Solver macros to fit the data to the kinetic model for competitive tight-binding inhibition.
What is called Ki is the equilibrium dissociation constant of an inhibitor or competing ligand from its target. On to `CC(C)(C)OC(=O)c1cc(N[C@H]2CC[C@@H](Oc3cc(N4CCOCC4)cc4nccnc34)CC2)ccc1F` [Compound 421], for which the Ki was less than 100 nM.

For the compound `CCSc1nc(C)cc(N[C@H]2CC[C@@H](Oc3cc(N4CCOCC4)cc4nccnc34)CC2)n1` [Compound 635], the Ki was less than 100 nM.

`CN(C)c1nccc(N[C@H]2CC[C@@H](Oc3cc(N4CCOCC4)cc4nccnc34)CC2)n1` [Compound 453]: the Ki was less than 100 nM.

Consider `CCOc1ccc(N[C@H]2CC[C@@H](Oc3cc(N4CCOCC4)cc4nccnc34)CC2)nc1` [Compound 658], for which the Ki is less than 100 nM.

Take `Fc1c(NC2CCOCC2)ncnc1N[C@H]1CC[C@@H](Oc2cc(N3CCOCC3)cc3nccnc23)CC1` [Compound 378]: the Ki was less than 100 nM.

Regarding `CNC(=O)c1ccnc(N[C@H]2CC[C@@H](Oc3cc(N4CC5CC(C4)O5)cc4nccnc34)CC2)n1` [Compound 317], the Ki is less than 100 nM.

For the compound `N#Cc1cncnc1N[C@H]1CC[C@@H](Oc2cc(N3CCOCC3)cc3nccnc23)CC1` [Compound 422], the Ki was less than 100 nM.

In the case of `CNC(=O)c1cccc(N[C@H]2CC[C@@H](Oc3cc(N4CCOCC4)cc4nccnc34)CC2)n1` [Compound 406], the Ki is less than 100 nM.

With `OC(c1ccc(N[C@H]2CC[C@@H](Oc3cc(N4CCOCC4)cc4nccnc34)CC2)nc1)C(F)(F)F` (stereo partly drawn) [Compound 630], the Ki was less than 100 nM.

In the case of `Clc1cnc(N[C@H]2CC[C@@H](Oc3cc(N4CCOCC4)cc4nccnc34)CC2)nc1` [Compound 485], the Ki is less than 100 nM.

Turning to `Fc1c[nH]c2ncnc(N[C@H]3CC[C@@H](Oc4cc(N5CCOCC5)cc5nccnc45)CC3)c12` [Compound 437], the Ki was less than 100 nM.

Regarding `CN1CCN(c2ccnc(N[C@H]3CC[C@@H](Oc4cc(N5CCOCC5)cc5nccnc45)CC3)n2)CC1` [Compound 547], the Ki was less than 100 nM.

For the compound `Fc1c(N[C@H]2CC[C@@H](Oc3cc(N4CCOCC4)cc4nccnc34)CC2)ncnc1N1CCOCC1` [Compound 511], the Ki was less than 100 nM.

Turning to `CN(C)C(=O)c1cc(N[C@H]2CC[C@@H](Oc3cc(N4CCOCC4)cc4nccnc34)CC2)ncn1` [Compound 361], the Ki is less than 100 nM.

With `CN(C)CCOc1ccnc(N[C@H]2CC[C@@H](Oc3cc(N4CCOCC4)cc4nccnc34)CC2)n1` [Compound 559], the Ki was less than 100 nM.

`COc1ncc(F)c(N[C@H]2CC[C@@H](Oc3cc(N4CCOCC4)cc4nccnc34)CC2)n1` [Compound 396]: the Ki is less than 100 nM.

In the case of `c1cnc2c(O[C@H]3CC[C@@H](Nc4ncc(OCCN5CCOCC5)cn4)CC3)cc(N3CCOCC3)cc2n1` [Compound 585], the Ki was less than 100 nM.

Regarding `Cc1ncncc1N[C@H]1CC[C@@H](Oc2cc(N3CCOCC3)cc3nccnc23)CC1` [Compound 448], the Ki is less than 100 nM.

Turning to `Cc1nccc(N[C@H]2CC[C@@H](Oc3cc(C4=CCOC4)cc4nccnc34)CC2)n1` [Compound 289], the Ki is less than 100 nM.

For the compound `CN1CCN(CCOc2ccc(N[C@H]3CC[C@@H](Oc4cc(N5CCOCC5)cc5nccnc45)CC3)nc2)CC1` [Compound 655], the Ki is less than 100 nM.

For the compound `CN1CCc2cnc(N[C@H]3CC[C@@H](Oc4cc(N5CCOCC5)cc5nccnc45)CC3)nc2C1` [Compound 556], the Ki was less than 100 nM.

Regarding `CN(C)C(=O)N[C@H]1CC[C@@H](Oc2cc(N3CCOCC3)cc3nccnc23)CC1` [Compound 411], the Ki was less than 100 nM.

Turning to `CN(C)Cc1ccnc(N[C@H]2CC[C@@H](Oc3cc(N4CCOCC4)cc4nccnc34)CC2)n1` [Compound 483], the inhibition constant Ki is less than 100 nM.

Turning to `CC(C)(O)c1ccc(N[C@H]2CC[C@@H](Oc3cc(N4CCOCC4)cc4nccnc34)CC2)nc1` [Compound 281], the Ki was less than 100 nM.

Regarding `Cc1cnc(N[C@H]2CC[C@@H](Oc3cc(N4CCOCC4)cc4nccnc34)CC2)cn1` [Compound 282], the Ki is less than 100 nM.

As for `Cn1ncc2c(N[C@H]3CC[C@@H](Oc4cc(N5CCOCC5)cc5nccnc45)CC3)ncnc21` [Compound 545], the Ki was less than 100 nM.

For the compound `COc1cccnc1N[C@H]1CC[C@@H](Oc2cc(N3CCOCC3)cc3nccnc23)CC1` [Compound 592], the Ki is less than 100 nM.
